Assay results reported in US7662832B2, “Pyrrolo[2,3-c]pyridine derivatives and processes for the preparation thereof” (priority 2004, dated 2010).
Counter-ions that a name gives are not always drawn.

biological target: Proton Pump (H^+/K^+-ATPase) (Sus scrofa, UniProt P19156); assay: Inhibitory effects on proton pump (H^+/K^+-ATPase) activity; format: biochemical; details: hog gastric vesicles; K^+ stimulated H^+/K^+-ATPase activity; 30 minutes at 37° C.
Sequence (P19156 2-1034 limits assumed): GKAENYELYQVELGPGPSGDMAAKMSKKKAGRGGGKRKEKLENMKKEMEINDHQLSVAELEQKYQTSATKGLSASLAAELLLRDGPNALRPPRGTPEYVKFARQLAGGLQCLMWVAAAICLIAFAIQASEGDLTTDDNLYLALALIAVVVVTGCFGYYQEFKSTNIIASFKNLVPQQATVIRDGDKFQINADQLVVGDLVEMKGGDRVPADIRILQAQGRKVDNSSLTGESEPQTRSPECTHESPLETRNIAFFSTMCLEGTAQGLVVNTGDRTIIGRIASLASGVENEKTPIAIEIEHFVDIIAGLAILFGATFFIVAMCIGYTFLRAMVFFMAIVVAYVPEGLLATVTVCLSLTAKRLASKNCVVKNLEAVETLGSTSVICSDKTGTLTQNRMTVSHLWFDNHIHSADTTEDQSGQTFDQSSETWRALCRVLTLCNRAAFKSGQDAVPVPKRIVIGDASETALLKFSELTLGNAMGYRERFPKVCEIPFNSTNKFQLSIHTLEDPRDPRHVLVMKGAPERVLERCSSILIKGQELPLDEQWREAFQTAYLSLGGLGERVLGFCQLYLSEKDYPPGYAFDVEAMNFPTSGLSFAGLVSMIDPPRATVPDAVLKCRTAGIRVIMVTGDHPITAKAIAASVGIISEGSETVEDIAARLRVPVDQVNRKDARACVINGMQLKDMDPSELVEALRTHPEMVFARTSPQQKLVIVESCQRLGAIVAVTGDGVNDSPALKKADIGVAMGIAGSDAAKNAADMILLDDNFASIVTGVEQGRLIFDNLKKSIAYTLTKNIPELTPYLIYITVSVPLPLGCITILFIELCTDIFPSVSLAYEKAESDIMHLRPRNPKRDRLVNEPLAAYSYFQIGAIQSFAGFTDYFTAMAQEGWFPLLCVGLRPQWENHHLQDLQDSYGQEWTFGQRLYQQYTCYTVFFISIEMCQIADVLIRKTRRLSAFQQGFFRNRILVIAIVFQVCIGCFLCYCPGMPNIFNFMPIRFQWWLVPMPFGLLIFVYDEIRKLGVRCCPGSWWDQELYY
Sequence (P18434 whole entry partner): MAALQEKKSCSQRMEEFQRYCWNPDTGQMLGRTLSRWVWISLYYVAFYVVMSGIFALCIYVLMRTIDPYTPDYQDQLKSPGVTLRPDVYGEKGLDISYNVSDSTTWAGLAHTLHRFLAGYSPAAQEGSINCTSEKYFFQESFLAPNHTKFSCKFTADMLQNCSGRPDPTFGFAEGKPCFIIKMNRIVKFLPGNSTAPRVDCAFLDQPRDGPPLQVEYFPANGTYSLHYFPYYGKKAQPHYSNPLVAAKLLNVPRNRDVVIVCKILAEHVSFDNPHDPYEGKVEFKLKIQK

Structure (SMILES) | IC50 [µM]
COc1ccc(Cn2c(C)c(C)c3ccnc(N(C)Cc4ccc(F)cc4)c32)cc1 [Example 156, 7-[N-(4-fluorobenzyl)-N-methyl]amino-1-(4-methoxybenzyl)-2,3-dimethyl-1H-pyrrolo[2,3-c]pyridine hydrochloride] | 0.31
Cc1cccc(Cn2c(C)c(C)c3ccnc(CN(C)c4ccc(F)cc4)c32)c1 [Example 126, N-[2,3-dimethyl-1-(3-methylbenzyl)-1H-pyrrolo[2,3-c]pyridin-7-ylmethyl]-N-(4-fluorophenyl)-methylamine hydrochloride] | 0.397
Cc1c(C)n(Cc2ccccc2F)c2c(CCc3ccccc3)nccc12 [Example 450, 1-(2-fluorobenzyl)-2,3-dimethyl-7-phenethyl-1H-pyrrolo[2,3-c]pyridine hydrochloride] | 0.27
C=CCn1c(C)c(C)c2ccnc(-c3ccc(OC)cc3)c21 [Example 360, 1-allyl-7-(4-methoxyphenyl)-2,3-dimethyl-1H-pyrrolo[2,3-c]pyridine hydrochloride] | 0.278
C=CCn1c(C)c(C)c2cc(C#N)nc(N3CCc4ccccc4C3)c21 [Example 684, 1-allyl-7-(3,4-dihydro-1H-isoquinolin-2-yl)-2,3-dimethyl-1H-pyrrolo[2,3-c]pyridin-5-carbonitrile] | 0.49
COc1cccc(Cn2c(C)c(C)c3cc(C(=O)N4CCC(C)CC4)nc(N4CCc5ccccc5C4)c32)c1 [Example 823, [7-(3,4-dihydro-1H-isoquinolin-2-yl)-1-(3-methoxybenzyl)-2,3-dimethyl-1H-pyrrolo[2,3-c]pyridin-5-yl]-(4-methylpiperidin-1-yl)-methanone hydrochloride] | 0.216
Cc1c(C)n(Cc2ccccc2)c2c(NCc3ccc(Cl)cc3)nccc12 [Example 215, 1-benzyl-7-(4-chlorobenzylamino)-2,3-dimethyl-1H-pyrrolo[2,3-c]pyridine hydrochloride] | 0.42
Cc1ccc(Cn2c(C)c(C)c3ccnc(N4CCc5ccc(F)cc5C4C)c32)cc1 (stereo not shown) [Example 548, 2-[2,3-dimethyl-1-(4-methylbenzyl)-1H-pyrrolo[2,3-c]pyridin-7-yl]-7-fluoro-1-methyl-1,2,3,4-tetrahydroisoquinoline hydrochloride] | 0.41
C=CCn1c(C)c(C)c2ccnc(N3CCc4ccccc4C3)c21 [Example 491, 1-allyl-7-(1,2,3,4-tetrahydroisoquinolin-2-yl)-2,3-dimethyl-1H-pyrrolo[2,3-c]pyridine maleate] | 0.002
Cc1ccc(-c2nccc3c(C)c(C)n(Cc4ccc(Cl)cc4)c23)cc1 [Example 283, 1-(4-chlorobenzyl)-2,3-dimethyl-7-(p-tolyl)-1H-pyrrolo[2,3-c]pyridine hydrochloride] | 1.74
Cc1c(C)n(Cc2cccc(Cl)c2)c2c(N3CCc4ccccc4C3)nc(-c3nnn[nH]3)cc12 [Example 852, 2-[1-(3-chlorobenzyl)-2,3-dimethyl-5-(1H-tetrazol-5-yl)-1H-pyrrolo[2,3-c]pyridin-7-yl]-1,2,3,4-tetrahydroisoquinoline] | 0.427
Cc1c(C)n(CC2CC2)c2c(NCc3ccccc3)nccc12 [Example 185, 7-benzylamino-1-cyclopropylmethyl-2,3-dimethyl-1H-pyrrolo[2,3-c]pyridine hydrochloride] | 0.32
CCn1c(C)c(C)c2cc(C(=O)N3CCN(c4ccccc4)CC3)nc(N3CCc4ccccc4C3)c21 [Example 810, [7-(3,4-dihydro-1H-isoquinolin-2-yl)-1-ethyl-2,3-dimethyl-1H-pyrrolo[2,3-c]pyridin-5-yl]-(4-phenylpiperazin-1-yl)-methanone hydrochloride] | 0.436
Cc1c(C)n(Cc2cccc(F)c2)c2c(N3CCc4ccccc4C3)nc(CC#N)cc12 [Example 884, [7-(3,4-dihydro-1H-isoquinolin-2-yl)-1-(3-fluorobenzyl)-2,3-dimethyl-1H-pyrrolo[2,3-c]pyridin-5-yl]-acetonitrile hydrochloride] | 0.216
Cc1cc2ccnc(N3CCc4ccccc4C3)c2n1Cc1cccc(F)c1 [Example 613, 2-[1-(3-fluorobenzyl)-2-methyl-1H-pyrrolo[2,3-c]pyridin-7-yl]-1,2,3,4-tetrahydroisoquinoline hydrochloride] | 0.375
C=CCn1c(C)c(C)c2ccnc(N3CCc4ccccc4C3)c21 [Example 485, 1-allyl-7-(1,2,3,4-tetrahydroisoquinolin-2-yl)-2,3-dimethyl-1H-pyrrolo[2,3-c]pyridine citrate] | 0.006
C=CCn1c(C)c(C)c2ccnc(-c3ccc(F)cc3)c21 [Example 326, 1-allyl-7-(4-fluorophenyl)-2,3-dimethyl-1H-pyrrolo[2,3-c]pyridine hydrochloride] | 0.306
Cc1ccc(Cn2c(C)c(C)c3ccnc(C=Cc4ccccc4)c32)cc1 [Example 417, 2,3-dimethyl-1-(4-methylbenzyl)-7-styryl-1H-pyrrolo[2,3-c]pyridine hydrochloride] | 0.37

Further compounds by falling IC50, results first:

IC50 [µM] | Structure (SMILES)
0.21 | Cc1ccc(CNc2nccc3c(C)c(C)n(CC4CC4)c23)cc1 [Example 204, 1-cyclopropylmethyl-2,3-dimethyl-7-(4-methylbenzylamino)-1H-pyrrolo[2,3-c]pyridine hydrochloride]
0.2 | Cc1c(C)n(Cc2ccccc2F)c2c(N(C)Cc3ccc(F)cc3)nccc12 [Example 147, 1-(2-fluorobenzyl)-7-[N-(4-fluorobenzyl)-N-methyl]amino-2,3-dimethyl-1H-pyrrolo[2,3-c]-pyridine hydrochloride]
0.179 | C=C=Cn1c(C)c(C)c2ccnc(N3CCc4ccccc4C3)c21 [Example 526, 1-(propa-1,2-dienyl)-7-(1,2,3,4-tetrahydroisoquinolin-2-yl)-2,3-dimethyl-1H-pyrrolo[2,3-c]pyridine hydrochloride]
0.169 | Cc1c(C)n(Cc2cccc(F)c2)c2c(N3CCc4ccccc4C3)nc(C(=O)n3ccnc3)cc12 [Example 840, [7-(3,4-dihydro-1H-isoquinolin-2-yl)-1-(3-fluorobenzyl)-2,3-dimethyl-1H-pyrrolo[2,3-c]pyridin-5-yl]-(imidazol-1-yl)-methanone hydrochloride]
0.134 | Cc1c(C)n(Cc2ccc(C(C)(C)C)cc2)c2c(N3CCc4ccccc4C3)nc(C(=O)N3CCN(C)CC3)cc12 [Example 835, [1-(4-tert-butylbenzyl)-7-(3,4-dihydro-1H-isoquinolin-2-yl)-2,3-dimethyl-1H-pyrrolo[2,3-c]pyridin-5-yl]-(4-methylpiperazin-1-yl)-methanone hydrochloride]
0.13 | Cc1c(C)n(Cc2ccccc2)c2c(N3CCc4ccc(F)cc4C3C)nccc12 (stereo not shown) [Example 547, 2-(1-benzyl-2,3-dimethyl-1H-pyrrolo[2,3-c]pyridin-7-yl)-7-fluoro-1-methyl-1,2,3,4-tetrahydroisoquinoline hydrochloride]
0.085 | Cc1[nH]c2c(N3CCc4ccccc4C3)nc(C(=O)N3CCOCC3)cc2c1C [Example 776, [7-(3,4-dihydro-1H-isoquinolin-2-yl)-2,3-dimethyl-1H-pyrrolo[2,3-c]pyridin-5-yl]-(morpholin-4-yl)-methanone]
0.07 | Cc1c(C)n(CC2CC2)c2c(NCc3ccc(F)cc3)nccc12 [Example 226, 1-cyclopropylmethyl-7-(4-fluorobenzylamino)-2,3-dimethyl-1H-pyrrolo[2,3-c]pyridine hydrochloride]
0.065 | Cc1[nH]c2c(N3CCc4cc(F)ccc4C3C)nccc2c1C (stereo not shown) [Example 561, 6-fluoro-2-(2,3-dimethyl-1H-pyrrolo[2,3-c]pyridin-7-yl)-1-methyl-1,2,3,4-tetrahydroisoquinoline hydrochloride]
0.044 | Cc1c(C)n(CC2CCC2)c2c(N3CCc4ccccc4C3)nc(C(=O)N3CCN(C)CC3)cc12 [Example 830, [1-cyclobutylmethyl-7-(3,4-dihydro-1H-isoquinolin-2-yl)-2,3-dimethyl-1H-pyrrolo[2,3-c]pyridin-5-yl]-(4-methylpiperazin-1-yl)-methanone hydrochloride]
0.039 | Cc1c(C)n(Cc2ccc(F)cc2)c2c(N3CCc4ccccc4C3)nc(C(=O)N3CCN(C)CC3)cc12 [Example 831, [7-(3,4-dihydro-1H-isoquinolin-2-yl)-1-(4-fluorobenzyl)-2,3-dimethyl-1H-pyrrolo[2,3-c]pyridin-5-yl]-(4-methylpiperazin-1-yl)-methanone hydrochloride]
0.039 | CCCn1c(C)c(C)c2cc(C(=O)N3CCOCC3)nc(N3CCc4ccccc4C3)c21 [Example 781, [7-(3,4-dihydro-1H-isoquinolin-2-yl)-2,3-dimethyl-1-propyl-1H-pyrrolo[2,3-c]pyridin-5-yl]-(morpholin-4-yl)-methanone hydrochloride]
0.036 | CCn1c(C)c(C)c2cc(C(=O)N3CCC(CCO)CC3)nc(N3CCc4ccccc4C3)c21 [Example 804, [7-(3,4-dihydro-1H-isoquinolin-2-yl)-1-ethyl-2,3-dimethyl-1H-pyrrolo[2,3-c]pyridin-5-yl]-[4-(2-hydroxyethyl)-piperidin-1-yl]-methanone hydrochloride]
0.036 | Cc1c(C)n(Cc2ccccc2)c2c(N3CCc4ccccc4C3)nc(C(=O)N(C)C)cc12 [Example 771, 1-benzyl-7-(3,4-dihydro-1H-isoquinolin-2-yl)-2,3-dimethyl-N-dimethyl-1H-pyrrolo[2,3-c]pyridin-5-carboxamide hydrochloride]
0.032 | Cc1c(C)n(Cc2cccc(F)c2)c2c(N3CCc4ccccc4C3)nc(CO)cc12 [Example 851, 7-(3,4-dihydro-1H-isoquinolin-2-yl)-1-(3-fluorobenzyl)-2,3-dimethyl-1H-pyrrolo[2,3-c]pyridin-5-yl]-methanol hydrochloride]
0.009 | Cc1c(C)n(CC2CC2)c2c(N3CCc4ccccc4C3)nc(C(=O)N3CCNCC3)cc12 [Example 816, [1-cyclopropylmethyl-7-(3,4-dihydro-1H-isoquinolin-2-yl)-2,3-dimethyl-1H-pyrrolo[2,3-c]pyridin-5-yl]-(piperazin-1-yl)-methanone hydrochloride]
